Values quoted from earlier work as cited in patent US20230270707A1, “ORAL LIQUID PHARMACEUTICAL COMPOSITIONS OF ISOTRETINOIN” (IDRS Labs Private Limited, priority 2020, published 2023).
Where two headings read alike, the source gives them in different places.

Tests used:
[1] = target plasma level of isotretinoin ≥2 μM

CC1=C(/C=C/C(C)=C/C=C/C(C)=C\C(=O)O)C(C)(C)CCC1 [isotretinoin, 13-cis retinoic acid]
patients who achieved the target Cmax ([1]; drug extracted from capsules and mixed with food or given via nasogastric tube): 55%
patients who achieved the target Cmax ([1]; patients able to swallow the capsules): 92.5%
solubility in water: practically insoluble in water
